For assay [1], the system named is HepG2. Nature of the assay: Hypolipidemic activity against oleic acid/palmitic acid-induced hyperlipidemia in human HepG2 cells assessed as reduction in triglycerides content. The assay is classed as functional, cell-based.
Assay [2] relates to HepG2. Nature of the assay: Hypolipidemic activity against oleic acid-induced lipid accumulation in human HepG2 cell model assessed reduction in total cholesterol level. The format is functional, cell-based.
For assay [3], the system named is HepG2. Nature of the assay: Hypolipidemic activity against oleic acid/palmitic acid-induced hyperlipidemia in human HepG2 cells assessed as triglycerides content measured per gm of protein. The format is functional.
For assay [4], the system named is HepG2. Nature of the assay: Hypolipidemic activity against oleic acid/palmitic acid-induced hyperlipidemia in human HepG2 cells assessed as decrease in triglycerides level at 0.01 to 1 uM. The format is functional, cell-based. To be noted: dose 0.01-1 µM.
The subject of assay [5] is HepG2. Nature of the assay: Hypolipidemic activity against oleic acid/palmitic acid-induced hyperlipidemia in human HepG2 cells assessed reduction in total cholesterol level at 0.001 to 10 uM. The assay is classed as functional, cell-based. To be noted: dose 0.001-10 µM.
Assay [6] has as its system HepG2. Nature of the assay: Hypolipidemic activity against oleic acid/palmitic acid-induced hyperlipidemia in human HepG2 cells assessed as reduction in triglycerides content relative to control group. The format is functional.
In assay [7] the test system is HepG2. The experiment in a line: Hypolipidemic activity against oleic acid/palmitic acid-induced hyperlipidemia in human HepG2 cells assessed as decrease in triglycerides level at 0.001 to 1 uM. The settings on record: dose 0.001-1 µM. The assay is classed as functional, cell-based.
Assay [8] relates to HepG2. The experiment in a line: Hypolipidemic activity against oleic acid/palmitic acid-induced hyperlipidemia in human HepG2 cells assessed reduction in total cholesterol level at 10 uM. The format is functional, cell-based.
The subject of assay [9] is HepG2. The experiment in a line: Hypolipidemic activity against oleic acid/palmitic acid-induced hyperlipidemia in human HepG2 cells assessed as decrease in triglycerides level at 0.001 to 10 uM. The format is functional, cell-based. The settings on record: dose 0.001-10 µM.

Structures are written as SMILES. Active and inactive are the calls of the source. The rule behind the calls is not given here.

In the case of `O=c1c(O[C@@H]2O[C@H](CO)[C@H](O)[C@H](O)[C@H]2O)c(-c2ccc(O)c(O)c2)oc2cc(O)cc(O)c12`, in [1], the outcome was Active.
On the same count and under the same terms, in the case of `C[C@@H]1O[C@@H](O[C@@H]2[C@@H](O)[C@H](O)[C@@H](CO)O[C@H]2c2c(O)cc(O)c3c(=O)cc(-c4ccc(O)cc4)oc23)[C@H](O)[C@H](O)[C@H]1O` it was “Active”.
On to `CCC(C)(C)C(=O)O[C@H]1C[C@@H](C)C=C2C=C[C@H](C)[C@H](CC[C@@H]3C[C@@H](O)CC(=O)O3)[C@H]21`, for which the outcome in assay [1] and in assay [2] was Active.
Take `O=C(/C=C/c1ccc(O)c(O)c1)O[C@@H]1C[C@](O)(C(=O)O)C[C@@H](O)[C@H]1O`: the outcome in assay [1] was Active.
The same measure, in the same setting: in the case of `Oc1cc(O)c2c(c1)O[C@H](c1ccc(O)c(O)c1)[C@H](O)C2` it was “Active”.
On to `O=c1cc(-c2ccc(O)cc2)oc2c([C@@H]3O[C@H](CO)[C@@H](O)[C@H](O)[C@H]3O)c(O)cc(O)c12`, for which the figures for the Activity in assay [3], in assay [4] and in assay [5] were 0.283 mmol, “Dose-Dependent Effect” and “Dose-Dependent Effect”, respectively. Further, the inhibition in assay [6] (dose or concentration not given here) came out at 34.6%.
With `O=C1C[C@@H](c2ccc(O)c(O)c2)c2c(cc(O)c3c2O[C@H](c2cc(O)cc(O)c2)[C@H](O)C3)O1`, the Activity in assay [3] was 0.28 mmol; in [7], “Dose-Dependent Effect”; in [5], “Dose-Dependent Effect”. Also, the “inhibition (INH)” value in assay [6] turned out to be 34.92%.
`O=C1C[C@@H](c2ccc(O)c(O)c2)c2c(cc3c(c2O)C[C@@H](O)[C@@H](c2ccc(O)c(O)c2)O3)O1`: the outcome in [1] was Active.
Turning to `Oc1cc(O)c2c(c1)O[C@H](c1ccc(O)c(O)c1)[C@@H](O)C2`, the result in [1] was Active.
Take `O=c1cc(-c2ccc(O)cc2)oc2c([C@@H]3O[C@H](CO)[C@@H](O[C@@H]4O[C@H](CO)[C@@H](O)[C@H](O)[C@H]4O)[C@H](O)[C@H]3O)c(O)cc(O)c12`: in assay [3], the Activity is given as 0.28 mmol. The outcome in [8] and in assay [9] was Active. In assay [6], the “inhibition (INH)” value is given as 35.34%.
For `O=c1c(O[C@@H]2O[C@H](CO)[C@@H](O)[C@H](O)[C@H]2O)c(-c2ccc(O)c(O)c2)oc2cc(O)cc(O)c12` [ISOQUERCETIN], the Activity in assay [3] is given as 0.308 mmol. In addition, the result in [2] was inactive. In addition, the “inhibition (INH)” value in assay [6] is on record as 30.42%. The outcome in assay [9] was Active.
For the compound `O=c1c(O)c(-c2ccc(O)c(O)c2)oc2cc(O)cc(O)c12`, the outcome in [1] was Active.
With `COc1cc(CO[C@@H]2O[C@H](CO)[C@@H](O)[C@H](O)[C@H]2O)cc(OC)c1OC`, the result in assay [1] was Active.

Usually inhibition stands for the share of the control response that was lost under treatment.

The record behind these values is ChEMBL document CHEMBL4819155, “Phenolic compounds from the leaves of Crataegus pinnatifida Bge. var. major N.E.Br. And their lipid-lowering effects” (2021).
